Legend:
[1] = biological target: T1, human CYP11B2 (aldosterone synthase) (Homo sapiens, UniProt P19099); assay: Inhibition of human CYP11B2 (aldosterone synthase) expressed in Y1 cells; type: cell-based; details: hsCYP11B2-expressing Y1 cells; substrate 1 μM; inhibitor 0.1 nM-10 μM; 48 hours incubation
T1 construct: expressed in transfected cells; host or cells: Y1 cells
T1 sequence (P19099 25-503): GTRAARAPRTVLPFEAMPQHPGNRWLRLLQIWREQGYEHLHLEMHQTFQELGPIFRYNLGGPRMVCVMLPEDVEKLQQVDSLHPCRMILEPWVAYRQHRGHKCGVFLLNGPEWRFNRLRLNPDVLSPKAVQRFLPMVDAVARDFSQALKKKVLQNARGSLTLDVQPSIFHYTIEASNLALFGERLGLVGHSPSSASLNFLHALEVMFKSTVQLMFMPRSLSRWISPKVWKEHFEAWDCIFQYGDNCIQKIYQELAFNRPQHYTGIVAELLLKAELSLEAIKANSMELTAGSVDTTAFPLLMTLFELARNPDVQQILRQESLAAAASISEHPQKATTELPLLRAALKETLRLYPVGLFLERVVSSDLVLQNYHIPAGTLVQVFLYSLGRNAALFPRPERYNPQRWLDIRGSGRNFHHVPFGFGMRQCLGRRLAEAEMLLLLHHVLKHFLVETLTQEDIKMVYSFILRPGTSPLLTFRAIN
Procedure: (§1) Several non-radioactive fluorinated analogs of the above radioactive tracers were prepared for testing affinity for CYP11B2 (aldosterone synthase), expressed as IC50, and selectivity for CYP11B2 over CYP11B1 (11β-hydroxylase), referred to herein as the selectivity factor, in vitro as follows:
(§2) To conduct in vitro testing of nonradioactive compounds 1a*, 1b*, 1j*, 2a*, 2c*, 2d*, and 2e* to determine IC50 values for inhibition of CYP11B1 and CYP11B2, human CYP11B1 and CYP11B2 enzymes were expressed in Y1 cells using liposome/lipid-mediated DNA transfection. To evaluate CYP11B1 and CYP11B2 inhibition, hsCYP11B1- and hsCYP11B2-expressing Y1 cells were subcultured on 6-well plates (0.5×10^6 cells/well) in 2 ml of culture medium. The enzyme reaction was started after 24 hours by the addition of 1 ml culture medium containing either 11-deoxycortisol (RSS) or 11-deoxycorticosterone (DOC) as substrate and the corresponding inhibitor. RSS and DOC were dissolved in ethanol to a final test concentration of 1 μM. For determination of IC50 values, the inhibitors were added to the culture medium at concentrations between 0.1 nM-10 μM and incubated for 48 hours. Cells which were treated in the same way but without inhibitors, served as controls. As further controls, untransfected Y1 cells were also incubated with RSS and DOC, respectively. […]

[2] = biological target: T2, human CYP11B1 (11β-hydroxylase) (Homo sapiens, UniProt P15538); assay: Inhibition of human CYP11B1 expressed in Y1 cells, used for the selectivity factor versus CYP11B2; type: cell-based; details: ratio of IC50 values in hsCYP11B1- and hsCYP11B2-expressing Y1 cells; 48 hours incubation
T2 construct: expressed in transfected cells; host or cells: Y1 cells
T2 sequence (P15538 25-503): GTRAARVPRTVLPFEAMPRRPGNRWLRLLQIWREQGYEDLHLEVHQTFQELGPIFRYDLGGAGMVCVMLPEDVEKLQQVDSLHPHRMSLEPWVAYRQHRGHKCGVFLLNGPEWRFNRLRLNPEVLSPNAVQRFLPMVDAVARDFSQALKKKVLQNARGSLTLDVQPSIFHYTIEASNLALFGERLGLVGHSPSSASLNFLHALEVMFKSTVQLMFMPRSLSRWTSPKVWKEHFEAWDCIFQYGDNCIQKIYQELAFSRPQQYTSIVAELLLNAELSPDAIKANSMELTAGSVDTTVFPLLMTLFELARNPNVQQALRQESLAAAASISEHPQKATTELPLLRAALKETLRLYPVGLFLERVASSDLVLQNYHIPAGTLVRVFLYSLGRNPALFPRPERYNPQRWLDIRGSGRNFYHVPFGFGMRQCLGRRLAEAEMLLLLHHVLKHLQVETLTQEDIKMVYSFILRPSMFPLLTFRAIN
Procedure: as §1, §2

IC50 [1] [µM]	Selectivity Factor (IC50 CYP11B1/IC50 CYP11B2) [2]	Structure (SMILES)
0.0158 ± 0.0051	>100	FCCOc1ccc2cc(-c3cncc4ccccc34)ccc2c1 [Compound 1j]
0.0065 ± 0.0038	104	COc1ccc2cc(-c3cncc(OCCF)c3)ccc2c1 [Compound 1a, 3-(6-methoxy-2-naphthyl)-5-(2-fluoroethoxy)pyridine]
